Source: ChEMBL document CHEMBL1158373, “GRIND-based 3D-QSAR and CoMFA to investigate topics dominated by hydrophobic interactions: the case of hERG K+ channel blockers” (Eur J Med Chem, 2009)

Columns and labels:
[1] = Lipophilicity, log D at pH 7.0; conditions: buffer
[2] = target: Voltage-gated inwardly rectifying potassium channel KCNH2 (Homo sapiens, UniProt Q12809); assay: (§1) Inhibition of human ERG in MCF7 cells; conditions: for pIC50: human
hERG (KCNH2) = hERG (KCNH2) (Homo sapiens, UniProt Q12809); assay: as §1; conditions: human, mcf7
Chain of hERG (KCNH2) (Q12809 whole entry): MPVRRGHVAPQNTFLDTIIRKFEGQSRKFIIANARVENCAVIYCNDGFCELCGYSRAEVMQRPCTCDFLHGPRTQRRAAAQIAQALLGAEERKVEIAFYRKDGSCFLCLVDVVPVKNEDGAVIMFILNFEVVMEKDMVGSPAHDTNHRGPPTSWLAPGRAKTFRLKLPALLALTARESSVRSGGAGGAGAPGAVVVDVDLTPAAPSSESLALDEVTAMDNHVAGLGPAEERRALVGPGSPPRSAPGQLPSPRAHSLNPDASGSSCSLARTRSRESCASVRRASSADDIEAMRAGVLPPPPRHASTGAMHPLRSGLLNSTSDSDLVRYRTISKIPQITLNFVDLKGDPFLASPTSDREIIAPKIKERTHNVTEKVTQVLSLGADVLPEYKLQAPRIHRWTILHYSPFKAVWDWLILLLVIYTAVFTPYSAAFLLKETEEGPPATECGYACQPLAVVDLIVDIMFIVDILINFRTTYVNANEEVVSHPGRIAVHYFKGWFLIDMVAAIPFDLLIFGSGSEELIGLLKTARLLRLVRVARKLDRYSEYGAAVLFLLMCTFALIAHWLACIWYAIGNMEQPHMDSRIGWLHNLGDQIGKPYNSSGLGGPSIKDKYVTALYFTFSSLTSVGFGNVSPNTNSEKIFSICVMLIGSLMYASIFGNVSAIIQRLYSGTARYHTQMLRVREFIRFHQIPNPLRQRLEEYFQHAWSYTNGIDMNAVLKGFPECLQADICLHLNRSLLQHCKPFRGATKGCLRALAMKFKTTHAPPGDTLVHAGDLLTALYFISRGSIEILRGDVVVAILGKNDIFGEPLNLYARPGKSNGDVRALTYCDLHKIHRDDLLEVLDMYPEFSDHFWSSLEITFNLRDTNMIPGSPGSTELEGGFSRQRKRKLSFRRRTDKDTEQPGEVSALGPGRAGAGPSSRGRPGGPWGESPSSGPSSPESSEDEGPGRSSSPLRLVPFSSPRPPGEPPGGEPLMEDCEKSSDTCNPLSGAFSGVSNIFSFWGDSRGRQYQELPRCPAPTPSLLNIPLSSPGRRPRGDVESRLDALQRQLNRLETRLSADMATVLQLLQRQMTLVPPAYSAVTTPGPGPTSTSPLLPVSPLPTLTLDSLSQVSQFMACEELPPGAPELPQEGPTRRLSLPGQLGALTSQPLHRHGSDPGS

Chain of Voltage-gated inwardly rectifying potassium channel KCNH2 (Q12809 whole entry): as above

Row | Structure (SMILES) | logD [1] | further results
1 | CC(C)COCC(CN(Cc1ccccc1)c1ccccc1)N1CCCC1 (stereo not given) [BEPRIDIL] | 4.49 | –
2 | O=c1[nH]c2ccccc2n1CCCN1CCC(n2c(=O)[nH]c3cc(Cl)ccc32)CC1 [DOMPERIDONE] | 3.15 | –
3 | CN(C)CCC=C1c2ccccc2CCc2ccccc21 [AMITRIPTYLINE] | 3.33 | –
4 | CSc1ccc2c(c1)N(CCC1CCCCN1C)c1ccccc1S2 (stereo not given) [THIORIDAZINE] | 3.83 | –
5 | CN(c1nccc(=O)[nH]1)C1CCN(c2nc3ccccc3n2Cc2ccc(F)cc2)CC1 [MIZOLASTINE] | 1.96 | pIC50 ([2]; mcf7): 6.45
6 | C1CCC(C(CC2CCCCN2)C2CCCCC2)CC1 (stereo not given) [PERHEXILINE] | 2.81 | –
7 | O=C(O[C@@H]1C[C@@H]2C[C@H]3C[C@H](C1)N2CC3=O)c1c[nH]c2ccccc12 [DOLASETRON] | 2.6 | –
8 | COCC(=O)O[C@]1(CCN(C)CCCc2nc3ccccc3[nH]2)CCc2cc(F)ccc2[C@@H]1C(C)C [MIBEFRADIL] | 1.96 | –
9 | CN1CCN(C2=Nc3cc(Cl)ccc3Nc3ccccc32)CC1 [CLOZAPINE] | 4.41 | –
10 | CN1C2CCCC1CC(NC(=O)c1nn(C)c3ccccc13)C2 (stereo not given) [GRANISETRON] | -1.72 | –
11 | CN(C)CCCN1c2ccccc2Sc2ccc(Cl)cc21 [CHLORPROMAZINE] | 2.99 | –
12 | O=C(CCCN1CC=C(n2c(=O)[nH]c3ccccc32)CC1)c1ccc(F)cc1 [DROPERIDOL] | 2.25 | –
13 | C[C@@H]1CN(c2c(F)c(N)c3c(=O)c(C(=O)O)cn(C4CC4)c3c2F)C[C@H](C)N1 [SPARFLOXACIN] | -3.4 | pIC50 ([2]; MCF7 cells): 4.58
14 | COc1ccc(Cl)cc1C(=O)NCCc1ccc(S(=O)(=O)NC(=O)NC2CCCCC2)cc1 [GLYBURIDE] | 2.23 | –
15 | Cc1nc2n(c(=O)c1CCN1CCC(c3noc4cc(F)ccc34)CC1)CCCC2 [RISPERIDONE] | 0.71 | –
16 | COc1cc(N)c(Cl)cc1C(=O)NC1CCN(CCCOc2ccc(F)cc2)CC1OC (stereo not given) [CISAPRIDE] | 2.05 | –

Row | Structure (SMILES) | logD [1] | further results
17 | CN1CCN(CCCCN2C(=O)CN(/N=C/c3ccc(-c4ccc(Cl)cc4)o3)C2=O)CC1 [AZIMILIDE] | 2.05 | IC50 (hERG (KCNH2)): 0.562 µM
18 | CN(CCOc1ccc(NS(C)(=O)=O)cc1)CCc1ccc(NS(C)(=O)=O)cc1 [DOFETILIDE] | 0.68 | –
19 | CCCCN(CCCC)CCC(O)c1cc2c(Cl)cc(Cl)cc2c2cc(C(F)(F)F)ccc12 (stereo not given) [HALOFANTRINE] | 5.68 | –
20 | COc1ccc([C@@H]2Sc3ccccc3N(CCN(C)C)C(=O)[C@@H]2OC(C)=O)cc1 [DILTIAZEM] | 1.62 | –
21 | COc1ccc(CCN2CCC(Nc3nc4ccccc4n3Cc3ccc(F)cc3)CC2)cc1 [ASTEMIZOLE] | 4.14 | –
22 | O=C(CCCN1CCC(O)(c2ccc(Cl)cc2)CC1)c1ccc(F)cc1 [HALOPERIDOL] | 1.82 | –
23 | O=C1Cc2cc(CCN3CCN(c4nsc5ccccc45)CC3)c(Cl)cc2N1 [ZIPRASIDONE] | 3.93 | –
24 | COc1c(N2CCNC(C)C2)c(F)cc2c(=O)c(C(=O)O)cn(C3CC3)c12 (stereo not given) [GATIFLOXACIN] | -2.96 | IC50 [2]: 129 µM
25 | O=c1[nH]c2ccccc2n1C1CCN(CCCC(c2ccc(F)cc2)c2ccc(F)cc2)CC1 [PIMOZIDE] | 5.11 | –
26 | CC(C)(C)c1ccc(C(O)CCCN2CCC(C(O)(c3ccccc3)c3ccccc3)CC2)cc1 (stereo not given) [TERFENADINE] | 4.11 | –
27 | O=C1NCCN1CCN1CCC(c2cn(-c3ccc(F)cc3)c3ccc(Cl)cc23)CC1 [SERTINDOLE] | 2.65 | –
28 | COC(=O)[C@H]1[C@@H](OC(=O)c2ccccc2)C[C@@H]2CC[C@H]1N2C [COCAINE] | 0.41 | –
29 | Fc1ccc(Cn2c(NC3CCNCC3)nc3ccccc32)cc1 [TECASTEMIZOLE] | 0.16 | –
30 | CCCc1nn(C)c2c(=O)[nH]c(-c3cc(S(=O)(=O)N4CCN(C)CC4)ccc3OCC)nc12 | 2.29 | –
31 | Cc1c(F)c(N2CCNC(C)C2)cc2c1c(=O)c(C(=O)O)cn2C1CC1 (stereo not given) [GREPAFLOXACIN] | -1.47 | –
